The results in this text go back to the supplement of paper PMC12613149.

SMILES strings stand for the structures.

The nature of data set [1]: reversed-phase LC retention time (C18, 15 min MeOH gradient); higher = more hydrophobic / later elution.
A short description of data set [2]: collision cross section (TIMS, N2 drift gas) of the primary ion; higher = larger gas-phase ion size.
The mark [3] stands for this setting: ionization mode: ESI+, ion species: [M+H]+.
Setting [4] is: ionization mode: ESI-, ion species: [M-H]-.
Where [5] appears, read: ionization mode: ESI+, ion species: [M]+.

On to `CCCOc1nn(C(=O)NS(=O)(=O)c2ccccc2C(=O)OC)c(=O)n1C` [Propoxycarbazone], for which the “reversed-phase LC retention time” value was 11.7 min in data set [1] (setting [3]) and 9.86 min in data set [1] (setting [4]). Also, the collision cross section was determined as 199.32 Å² in data set [2] (setting [3]) and 193.45 Å² in data set [2] (setting [4]).

Take `CCCOC(=O)c1ccc(O)cc1` [Propylparaben]: the “reversed-phase LC retention time” value in data set [1] (setting [4]) is 12.9 min. Besides, the collision cross section in data set [2] (setting [4]) is given as 140.81 Å².

`Cc1c(C(C)C)c(=O)n(-c2ccccc2)n1C` [Propyphenazone]: the “reversed-phase LC retention time” value in data set [1] (setting [3]) turned out to be 12.3 min. The same molecule gave a collision cross section in data set [2] (setting [3]) of 153.65 Å².

Turning to `C#CC(C)(C)NC(=O)c1cc(Cl)cc(Cl)c1` [Propyzamide], the “reversed-phase LC retention time” value in data set [1] (setting [3]) was 14.2 min. This molecule came in with a collision cross section in data set [2] (setting [3]) of 158.35 Å².

`CCCN(CCC)C(=O)SCc1ccccc1` [Prosulfocarb]: in data set [1] (setting [3]), the “reversed-phase LC retention time” value turned out to be 16.4 min. The collision cross section in data set [2] (setting [3]) is on record as 158.12 Å².

`COc1nc(C)nc(NC(=O)NS(=O)(=O)c2ccccc2CCC(F)(F)F)n1` [Prosulfuron]: the figures for the “reversed-phase LC retention time” value in data set [1] (setting [3]) and in data set [1] (setting [4]) were 13.9 min and 11.9 min, respectively. For the same molecule, the collision cross section came out at 188.2 Å² in data set [2] (setting [3]) and 189.48 Å² in data set [2] (setting [4]).

With `OC(Cc1ccccc1Cl)(Cn1cncn1)C1(Cl)CC1` (configuration not stated) [Prothioconazole-desthio], the “reversed-phase LC retention time” value in data set [1] (setting [3]) was 14.9 min. In data set [2] (setting [3]), the collision cross section was 168.06 Å².

As to `CC1=NNC(=O)N(/N=C/c2cccnc2)C1` [Pymetrozine], in data set [1] (setting [3]), the “reversed-phase LC retention time” value is 5.8 min. In data set [2] (setting [3]), this molecule registered a collision cross section of 153.68 Å².

For the molecule `COC(=O)N(OC)c1ccccc1COc1ccn(-c2ccc(Cl)cc2)n1` [Pyraclostrobin], in data set [1] (setting [3]), the “reversed-phase LC retention time” value is 15.8 min. The molecule further came in with a collision cross section in data set [2] (setting [3]) of 184.99 Å².

As to `CCOC(=O)c1cn2nc(OP(=S)(OCC)OCC)cc2nc1C` [Pyrazophos], the “reversed-phase LC retention time” value in data set [1] (setting [3]) stood at 15.8 min. In data set [2] (setting [3]), the collision cross section is on record as 187.33 Å².

On to `CC(C)(C)c1ccc(CSc2cnn(C(C)(C)C)c(=O)c2Cl)cc1` [Pyridaben], for which, in data set [1] (setting [3]), the “reversed-phase LC retention time” value was 17.9 min. The molecule further showed a collision cross section in data set [2] (setting [3]) of 193.46 Å².

Regarding `CC(COc1ccc(Oc2ccccc2)cc1)Oc1ccccn1` (configuration not stated) [Pyriproxyfen], the “reversed-phase LC retention time” value in data set [1] (setting [3]) was determined as 16.9 min. In data set [2] (setting [3]), the collision cross section is 184.89 Å².

Take `Cc1cnc2c(C(=O)O)c(Cl)ccc2c1` [Quinmerac]: in data set [1] (setting [3]), the “reversed-phase LC retention time” value is 9.27 min. In addition, the collision cross section in data set [2] (setting [3]) amounted to 139.87 Å².

With `[O-][n+]1cccc2ccccc21` [Quinoline N-oxide], the “reversed-phase LC retention time” value in data set [1] (setting [3]) was found to be 7.48 min. Moreover, in data set [2] (setting [3]), the collision cross section is 124.14 Å².

On to `c1ccc2ncccc2c1` [Quinoline], for which the “reversed-phase LC retention time” value in data set [1] (setting [3]) was found to be 9.66 min. The collision cross section in data set [2] (setting [3]) is reported as 118.24 Å².

As to `Fc1ccc(Oc2ccnc3cc(Cl)cc(Cl)c23)cc1` [Quinoxyfen], the “reversed-phase LC retention time” value in data set [1] (setting [3]) was 17.1 min. The molecule also yielded a collision cross section in data set [2] (setting [3]) of 164.99 Å².

As to `CC(Oc1ccc(Oc2cnc3cc(Cl)ccc3n2)cc1)C(=O)O` (configuration not stated) [Quizalofop], the “reversed-phase LC retention time” value in data set [1] (setting [4]) amounted to 13.5 min. The molecule further registered a collision cross section in data set [2] (setting [4]) of 192.68 Å².

As to `O=C(c1ccc(OCCN2CCCCC2)cc1)c1c(-c2ccc(O)cc2)sc2cc(O)ccc12` [Raloxifene], the “reversed-phase LC retention time” value stood at 11.3 min in data set [1] (setting [3]) and 15.4 min in data set [1] (setting [4]). The values for the collision cross section in data set [2] (setting [3]) and in data set [2] (setting [4]) were 216.23 Å² and 213.83 Å², respectively.

Turning to `CN/C(=C\[N+](=O)[O-])NCCSCc1ccc(CN(C)C)o1` [Ranitidine], the results for the “reversed-phase LC retention time” value in data set [1] (setting [3]) and in data set [1] (setting [4]) were 6.09 min and 10.1 min, respectively. Also, the collision cross section in data set [2] (setting [3]) was 168.6 Å²; in data set [2] (setting [4]), 181.06 Å².

Consider `CCC(=O)[C@@]1(C)[C@H](C)C[C@H]2[C@@H]3CCC4=CC(=O)C=C[C@]4(C)[C@H]3[C@@H](O)C[C@@]21C` [Rimexolone], for which the “reversed-phase LC retention time” value was determined as 16 min in data set [1] (setting [3]) and 16.4 min in data set [1] (setting [4]). The results for the collision cross section in data set [2] (setting [3]) and in data set [2] (setting [4]) were 192.28 Å² and 191.62 Å², respectively.

Take `Cc1nc2n(c(=O)c1CCN1CCC(c3noc4cc(F)ccc34)CC1)CCCC2` [Risperidone]: the “reversed-phase LC retention time” value in data set [1] (setting [3]) was 10.4 min. In addition, the collision cross section in data set [2] (setting [3]) worked out at 205.9 Å².

With `CCCN(CCC)CCc1cccc2c1CC(=O)N2` [Ropinirole], the “reversed-phase LC retention time” value in data set [1] (setting [3]) was found to be 7.95 min. For the same molecule, the collision cross section in data set [2] (setting [3]) amounted to 163.51 Å².

Consider `CC[C@H]1OC(=O)[C@H](C)[C@@H](O[C@H]2C[C@@](C)(OC)[C@@H](O)[C@H](C)O2)[C@H](C)[C@@H](O[C@@H]2O[C@H](C)C[C@H](N(C)C)[C@H]2O)[C@](C)(O)C[C@@H](C)C(=NOCOCCOC)[C@H](C)[C@@H](O)[C@]1(C)O` [Roxithromycin], for which, in data set [1] (setting [3]), the “reversed-phase LC retention time” value is 14.1 min. In addition, the collision cross section in data set [2] (setting [3]) is on record as 277.32 Å².

Regarding `CC1OC(OCC2OC(Oc3c(-c4ccc(O)c(O)c4)oc4cc(O)cc(O)c4c3=O)C(O)C(O)C2O)C(O)C(O)C1O` (configuration not stated) [Rutin], the “reversed-phase LC retention time” value turned out to be 9.72 min in data set [1] (setting [3]) and 8.1 min in data set [1] (setting [4]). The collision cross section in data set [2] (setting [3]) came to 233.31 Å²; in data set [2] (setting [4]) it was 232.48 Å².

On to `O=C1NS(=O)(=O)c2ccccc21` [Saccharin], for which, in data set [1] (setting [4]), the “reversed-phase LC retention time” value is 4.8 min. Also, the collision cross section in data set [2] (setting [4]) came out at 128.86 Å².

Take `CC[C@@H](C(=O)[C@@H](C)[C@@H](O)[C@H](C)[C@@H]1O[C@@H]([C@@H](CC)C(=O)O)CC[C@@H]1C)[C@H]1O[C@]2(C=C[C@@H](O)[C@]3(CC[C@@](C)([C@H]4CC[C@](O)(CC)[C@H](C)O4)O3)O2)[C@H](C)C[C@@H]1C` [Salinomycin]: in data set [1] (setting [4]), the “reversed-phase LC retention time” value came out at 18.5 min. In data set [2] (setting [4]), this molecule displayed a collision cross section of 263.17 Å².

On to `CCCC[N+]1(C)[C@H]2CC(OC(=O)C(CO)c3ccccc3)C[C@H]1[C@H]1O[C@H]12` (some centres not stated) [Scopolamine-N-butyl], for which, in data set [1] (setting [5]), the “reversed-phase LC retention time” value is 9.85 min. This molecule also came in with a collision cross section in data set [2] (setting [5]) of 188.31 Å².

In the case of `COc1cc2ccc(=O)oc2cc1O` [Scopoletin], in data set [1] (setting [4]), the “reversed-phase LC retention time” value was determined as 7.44 min. In addition, the collision cross section in data set [2] (setting [4]) amounted to 133.5 Å².

Turning to `O=C(O)CCCCCCCCC(=O)O` [Sebacic acid], the “reversed-phase LC retention time” value in data set [1] (setting [3]) is 17 min; in data set [1] (setting [4]), 3.2 min. Besides, the collision cross section in data set [2] (setting [3]) turned out to be 176.16 Å²; in data set [2] (setting [4]), 142.73 Å².
